Patent publication US4812456A, “1-(N-(2-alkylthio-10H-phenothiazin-10-yl)alkyl)-4-benzoylpiperidines and pharmaceutical use” (Hoechst-Roussel Pharmaceuticals Inc., priority 1987, dated 1989)

Key:
[1] = system: mice; test: phenyl-p-quinone writhing assay in mice (analgesic activity, modified); format: in vivo, male mice (Charles River, CD-1); conditions: Mus musculus, sc, tested at peak time, estimated dose at which 50% inhibition of writhing is produced, computer linear regression
Experimental: The procedure employed to determine analgesic utility is a modification of the phenyl-p-quinone writhing assay in mice, a standard assay for analgesia (Proc. Soc. Exptl. Bio. Med., 95 729 (1957)]. In the modified procedure phenyl-p-benzoquinone (Eastman, 12.5 mg) is dissolved in 5 ml of 95% ethanol and the solution is diluted to a total volume of 100 ml with distilled water. The solution is administered to the subject mice […] at a dose of 10 ml per kg of body weight. A characteristic "writh", an inward rotation of one or more feet with twisting and turning of the trunk, drawing in of the abdominal wall, lordosis and arching of the back, is produced.
A total of 28 male mice (Charles River, CD-1), weighing 18 to 30 grams, are employed for a time response. The subject animals receive food and water ad libitum. Test compounds are dissolved in distilled water, or suspended in distilled water containing one drop of a suitable surfactant, such as Tween-80.
Four groups of five animals (20 animals) are given the test compound subcutaneously at 15, 30, 45 and 60 minutes prior to administration of the phenyl-p-quinone. Four control groups of 2 animals (8 animals) receive an equal volume of the vehicle. […] The number of writhes for each animal is recorded. […]

[2] = system: mice; test: climbing mice assay (apomorphine climbing, antipsychotic activity); format: in vivo, CK-1 male mice; conditions: Mus musculus, ip, compound 30 minutes prior to apomorphine 1.5 mg/kg subcutaneously, climbing scores at 10, 20 and 30 minutes, linear regression, read-out: Anti-Psychotic Activity (ED50)
From the text: The subject CK-1 male mice (23-27 grams) are group-housed under standard laboratory conditions. The mice are individually placed in wire mesh stick cages (4"×4" by 10") and are allowed one hour for adaptation and exploration of the new environment.
Mice consistently climbing before the injection of apomorphine are discarded.
With full-developed apomorphine climbing, the animals are hanging onto the cage walls, rather motionless, over longer periods of time. By contrast, climbs due to mere motor stimulation usually last only a few seconds.

CC(C)=CCN1CCC2(C)c3cc(O)ccc3CC1C2C (stereo not shown) [Pentazocine]
ED50 [1]: 1.3 mg/kg

CSc1ccc2c(c1)N(CCC1CCCCN1C)c1ccccc1S2 (stereo not shown) [Thioridazine]
ED50 [2]: 4.1 mg/kg

CSc1ccc2c(c1)N(CCCN1CCC(C(=O)c3ccc(F)cc3)CC1)c1ccccc1S2.O=C(O)/C=C/C(=O)O [4-(4-Fluorobenzoyl)-1-[3-(2-methylthio-10H-phenothiazin-10-yl)propyl]piperidine fumarate]
ED50 [1]: 6.1 mg/kg
ED50 [2]: 1.4 mg/kg
